Assay results taken from US12661338B2, “Heterocyclic compounds as modulators of beta-catenin / TCF4 interaction” (AGENCY FOR SCIENCE, TECHNOLOGY AND RESEARCH, priority 2019, dated 2026).

Columns and labels:
Type in all cases: cell-based
STF3A cells = assay: Viability (toxicity) of STF3A reporter cells, CCK-8; details: Table 3; STF3A reporter cell line
Procedure: The Wnt STF3A reporter cells were seeded as 20,000 cells in 100 μL culture medium per well in 96-well plates (Corning cat. #3903, Falcon cat. #353072). The next day, 5-fold dilutions of the compounds in DMSO were added to the cells at a final concentration of 1% DMSO. After 24 hr incubation, the viability of the cells was determined with cell counting kit-8 (CCK-8, Dojindo cat. #CK04) cell viability reagent according to the manufacturer's protocol while the TOPFlash reporter activity was determined with Steady-Glo luciferase reagent.
(§1) The average signal from DMSO treated wells was calculated for each plate, and the signal from each treatment well was normalized against the average DMSO signal from the respective plate. The normalized values were plotted against the concentrations tested using GraphPad Prism 5, and the EC50 values were determined through either three- or four-parameter nonlinear regression.

CRC2255 = assay: Viability of primary patient-derived colorectal cancer cell line
CRC1850 = assay: as above; details: CRC1850, Liver Met
CRC1707 = assay: as above
CRC1846 = assay: as above
[1] = tested on: Myc reporter (Luc)-HCT116 cells; assay: Myc signalling reporter dose response; details: Homo sapiens, HCT-116, 24 hr
Procedure: The Myc reporter (Luc)-HCT116 cells were seeded as 25,000 cells in 100 μL assay medium per well in 96-well plates (Corning cat. #3903, Falcon cat. #353072). The assay medium consists of the growth medium without G-418. The next day, 4-fold dilutions of the compounds in DMSO were added to the cells at a final concentration of 1% DMSO. After 24 hr incubation, the viability of the cells was determined with PrestoBlue cell viability reagent while the luciferase reporter activity was determined with Steady-Glo luciferase reagent.
as §1

HCT116 cells = assay: Spheroid formation assay; details: HCT116, 30 μM
Procedure: HCT116, DLD-1, and SW480 cells were seeded as 150 cells in 200 μL spheroid medium per well in 96-well ultra-low attachment plates (Corning cat. #3474). The compounds were added on the day of cell seeding at a final concentration of 30 μM, 0.5% DMSO. The cells were grown at 37° C., 5% CO2 and images of the spheroids formed were taken on days 7 and 10 after cell seeding using the Operetta CLS system (Perkin Elmer).

CRC948 = assay: Viability of primary patient-derived colorectal cancer cell line
CRC2440 = assay: as above
CRC2367 = assay: as above
β-cat-ECAD interaction = assay: Co-immunoprecipitation of β-cat and ECAD in HCT116 cells; details: 18 hr
Procedure: HCT116 cells were treated for 18 hr with compounds at the indicated concentrations. Cells were lysed on ice in lysis buffer containing 20 mM HEPES, pH 7.5, 137 mM NaCl, 1.5 mM MgCl2, 1 mM EGTA, 1 mM dithiothreitol (DTT), 1% Triton X-100, 10% glycerol, cOmplete protease inhibitor cocktail (Roche cat. #11697498001), and 1 mM Na3VO4. Each sample of cleared protein lysate was incubated overnight at 4° C. with 4 μg anti-β-cat antibody (Sigma cat. #C7207) followed by 1 hr incubation with a 50 μL slurry of Dynabeads Protein G (Invitrogen cat. #10004D) at 4° C. The beads were then washed three times with lysis buffer at 4° C., and the bound protein was eluted by heating the beads with 30 μL (per sample) of SDS sample buffer at 95° C. for 7 min. protein was resolved by SDS-PAGE and blotted onto PVDF membrane (Millipore cat. #IPVH00010). Primary antibodies were incubated overnight at 4° C. and the blots were detected with either IRDye 800CW goat anti-rabbit antibody (LI-COR cat. #926-32211) or IRDye 680RD goat anti-mouse antibody (LI-COR cat. #926-68070) at 1:5000 dilution. Signals were visualized with the LI-COR Odyssey CLx imaging system and bands were quantified using LI-COR Image Studio data analysis software. […]

CCc1ccc(OCc2nnc(SC3CCCC3=O)n2C(C)c2ccccc2)cc1 (centres unmarked) [GB1874] showed an IC50 (STF3A cells) of 64 µM, an EC50 (CRC2255) of 20 µM and an EC50 (CRC1850) of 37 µM. For the same molecule, the EC50 (CRC1707) was 19 µM, the EC50 (CRC1846) was 17 µM and the IC50 [1] was 32 µM. The spheroid formation (HCT116 cells) was “markedly reduce survival of the cancer stem-like cells”, the EC50 (CRC948) was 17 µM and the EC50 (CRC2440) was 16 µM. For the same molecule, the EC50 (CRC2367) was 20 µM and the “β-cat-ECAD interaction (co-IP)” value (β-cat-ECAD interaction) was “minimal effect on the β-cat-ECAD interaction”.
